Reference: patent publication US10392347B2, “2,4-dihydroxy-nicotinamides as APJ agonists” (BRISTOL-MYERS SQUIBB COMPANY, priority 2015, dated 2019)
Where two headings read alike, the source gives them in different places.

Biological target: T1, human APJ receptor (Homo sapiens, UniProt P35414)
T1 construct: expressed in transfected cells
T1 sequence (P35414 1-380): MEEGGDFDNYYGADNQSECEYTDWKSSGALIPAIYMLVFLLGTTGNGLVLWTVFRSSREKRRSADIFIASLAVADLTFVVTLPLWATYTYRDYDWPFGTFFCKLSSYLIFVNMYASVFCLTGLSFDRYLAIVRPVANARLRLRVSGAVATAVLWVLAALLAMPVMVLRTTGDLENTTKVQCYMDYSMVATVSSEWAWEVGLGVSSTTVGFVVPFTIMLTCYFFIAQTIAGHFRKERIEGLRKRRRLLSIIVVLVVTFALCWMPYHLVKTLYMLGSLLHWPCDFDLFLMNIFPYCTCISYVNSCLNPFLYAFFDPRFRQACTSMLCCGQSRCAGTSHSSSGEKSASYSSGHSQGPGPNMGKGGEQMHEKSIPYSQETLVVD
Assay: Intracellular cAMP accumulation assay (APJ hcAMP, HTRF)
Type: cell-based
Conditions: HEK293 cells stably expressing human APJ, forskolin-stimulated cAMP, read-out: Human cAMP EC50
In short: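 Inhibition of forskolin (2 μM)-stimulated cAMP, with […], was measured after 30 min compound exposure at room temperature in stably transfected HEK293 cells. HTRF ratios were converted to cAMP via standard curve, and EC50 values came from variable-slope sigmoidal concentration-response fitting.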

EC50 (Table 4) | EC50 (Table 5) | Compound
0.01 to 10 nM | – | CCOCc1nc(O)c(C(=O)N2CCN(Cc3cccc(Cl)c3Cl)CC2)c(O)c1-c1c(OC)cccc1OC [Example 104, 3-{4-[(2,3-dichlorophenyl)methyl]piperazine-1-carbonyl}-5-(2,6-dimethoxyphenyl)-6-(ethoxymethyl)pyridine-2,4-diol]
0.01 to 10 nM | – | CCCCc1nc(O)c(C(=O)N2CCN(C(=O)c3ccc(Cl)cn3)CC2)c(O)c1-c1c(OC)cccc1OC [Example 105, 6-butyl-3-[4-(5-chloropyridine-2-carbonyl)piperazine-1-carbonyl]-5-(2,6-dimethoxyphenyl)pyridine-2,4-diol]
0.01 to 10 nM | – | CCCCc1nc(O)c(C(=O)N2CCC(Cc3ccccc3C)CC2)c(O)c1-c1c(OC)cccc1OC [Example 106, 6-butyl-5-(2,6-dimethoxyphenyl)-3-{4-[(2-methylphenyl)methyl]piperidine-1-carbonyl}pyridine-2,4-diol]
100 to 300 nM | – | CCCCc1nc(O)c(C(=O)N2CCN(Cc3cccc(C(F)(F)F)c3)CC2)c(O)c1-c1c(OC)cccc1OC [Example 107, 6-butyl-5-(2,6-dimethoxyphenyl)-3-(4-{[3-(trifluoromethyl)phenyl]methyl}piperazine-1-carbonyl)pyridine-2,4-diol]
0.01 to 10 nM | – | CCCCc1nc(O)c(C(=O)N2CCN(Cc3cccc(F)c3F)CC2)c(O)c1-c1c(OC)cccc1OC [Example 108, 6-butyl-3-{4-[(2,3-difluorophenyl)methyl]piperazine-1-carbonyl}-5-(2,6-dimethoxyphenyl)pyridine-2,4-diol]
10 to 100 nM | – | CCCCc1nc(O)c(C(=O)N2CCN(CC3CCCCC3)CC2)c(O)c1-c1c(OC)cccc1OC [Example 109, 6-butyl-3-[4-(cyclohexylmethyl)piperazine-1-carbonyl]-5-(2,6-dimethoxyphenyl)pyridine-2,4-diol]
0.01 to 10 nM | – | CCCCc1nc(O)c(C(=O)N2CCN(Cc3cccc(F)c3F)CC2)c(O)c1-c1cc(OC)ccc1OC [Example 110, 6-butyl-3-{4-[(2,3-difluorophenyl)methyl]piperazine-1-carbonyl}-5-(2,5-dimethoxyphenyl)pyridine-2,4-diol]
10 to 100 nM | – | CCCCc1nc(O)c(C(=O)N2CCN(CC3CC3)CC2)c(O)c1-c1c(OC)cccc1OC [Example 111]
0.01 to 10 nM | – | CCCCc1nc(O)c(C(=O)N2CCN(Cc3cccc(Cl)c3Cl)CC2)c(O)c1-c1cccc(OC)c1OC [Example 112, 6-butyl-3-{4-[(2,3-dichlorophenyl)methyl]piperazine-1-carbonyl}-5-(2,3-dimethoxyphenyl)pyridine-2,4-diol]
0.01 to 10 nM | – | CCCCc1nc(O)c(C(=O)N2CCC(Cc3cc(F)ccc3Br)CC2)c(O)c1-c1c(OC)cccc1OC [Example 113, 3-{4-[(2-bromo-5-fluorophenyl)methyl]piperidine-1-carbonyl}-6-butyl-5-(2,6-dimethoxyphenyl)pyridine-2,4-diol]
0.01 to 10 nM | – | CCOCc1nc(O)c(C(=O)N2CCN(Cc3cccc(F)c3F)CC2)c(O)c1-c1c(OC)cccc1OC [Example 114, 3-{4-[(2,3-difluorophenyl)methyl]piperazine-1-carbonyl}-5-(2,6-dimethoxyphenyl)-6-(ethoxymethyl)pyridine-2,4-diol]
0.01 to 10 nM | – | CCCCc1nc(O)c(C(=O)N2CC(Oc3ncccc3F)C2)c(O)c1-c1c(OC)cccc1OC [Example 115, 6-butyl-5-(2,6-dimethoxyphenyl)-3-{3-[(3-fluoropyridin-2-yl)oxy]azetidine-1-carbonyl}pyridine-2,4-diol]
0.01 to 10 nM | – | CCCCc1nc(O)c(C(=O)N2CC(OCc3cccc(F)c3F)C2)c(O)c1-c1c(OC)cccc1OC [Example 116, 6-butyl-3-{3-[(2,3-difluorophenyl)methoxy]azetidine-1-carbonyl}-5-(2,6-dimethoxyphenyl)pyridine-2,4-diol]
100 to 300 nM | – | CCCCc1nc(O)c(C(=O)N(CCC)CCc2ccccc2F)c(O)c1-c1c(OC)cccc1OC [Example 117, 6-butyl-5-(2,6-dimethoxyphenyl)-N-[2-(2-fluorophenyl)ethyl]-2,4-dihydroxy-N-propylpyridine-3-carboxamide]
0.01 to 10 nM | – | CCCCc1nc(O)c(C(=O)N2CC(NS(=O)(=O)c3cccc(F)c3F)C2)c(O)c1-c1c(OC)cccc1OC [Example 118, N-{1-[6-butyl-5-(2,6-dimethoxyphenyl)-2,4-dihydroxypyridine-3-carbonyl]azetidin-3-yl}-2,3-difluorobenzene-1-sulfonamide]
0.01 to 10 nM | – | CCCCc1nc(O)c(C(=O)N2CCN(C(=O)c3cccc(F)c3F)CC2)c(O)c1-c1c(OC)cccc1OC [Example 119, 6-butyl-3-[4-(2,3-difluorobenzoyl)piperazine-1-carbonyl]-5-(2,6-dimethoxyphenyl)pyridine-2,4-diol]
0.01 to 10 nM | – | CCCCc1nc(O)c(C(=O)N2CCN(Cc3ncccc3F)CC2)c(O)c1-c1c(OC)cccc1OC [Example 120, 6-butyl-5-(2,6-dimethoxyphenyl)-3-{4-[(3-fluoropyridin-2-yl)methyl]piperazine-1-carbonyl}pyridine-2,4-diol]
0.01 to 10 nM | – | CCCCc1nc(O)c(C(=O)N2CCN(Cc3cccc(C)c3F)CC2)c(O)c1-c1c(OC)cccc1OC [Example 121, 6-butyl-5-(2,6-dimethoxyphenyl)-3-{4-[(2-fluoro-3-methylphenyl)methyl]piperazine-1-carbonyl}pyridine-2,4-diol]
0.01 to 10 nM | – | CCCCc1nc(O)c(C(=O)N2CCN(Cc3cc(F)ccc3F)CC2)c(O)c1-c1c(OC)cccc1OC [Example 122, 6-butyl-3-{4-[(2,5-difluorophenyl)methyl]piperazine-1-carbonyl}-5-(2,6-dimethoxyphenyl)pyridine-2,4-diol]
0.01 to 10 nM | – | CCCCc1nc(O)c(C(=O)N2CCN(Cc3cccc(Cl)n3)CC2)c(O)c1-c1c(OC)cccc1OC [Example 123, 6-butyl-3-{4-[(6-chloropyridin-2-yl)methyl]piperazine-1-carbonyl}-5-(2,6-dimethoxyphenyl)pyridine-2,4-diol]
– | 0.01 to 10 nM | CCOCc1nc(O)c(C(=O)N2CCC(c3cccc(F)c3)C2)c(O)c1-c1c(OC)cccc1OC (stereo not shown) [Example 124, 5-(2,6-dimethoxyphenyl)-6-(ethoxymethyl)-3-[3-(3-fluorophenyl)pyrrolidine-1-carbonyl]pyridine-2,4-diol]
– | 10 to 100 nM | COc1cccc(OC)c1-c1c(C2CCCC2)nc(O)c(C(=O)N2CCC(c3cccc(F)c3)C2)c1O (stereo not shown) [Example 125, 6-cyclopentyl-5-(2,6-dimethoxyphenyl)-3-[3-(3-fluorophenyl)pyrrolidine-1-carbonyl]pyridine-2,4-diol]
– | 0.01 to 10 nM | CCOCc1nc(O)c(C(=O)N2CCC(c3ccccc3F)C2)c(O)c1-c1c(OC)cccc1OC (stereo not shown) [Example 126, 5-(2,6-dimethoxyphenyl)-6-(ethoxymethyl)-3-[3-(2-fluorophenyl)pyrrolidine-1-carbonyl]pyridine-2,4-diol]
– | 0.01 to 10 nM | CCOCc1nc(O)c(C(=O)N2CCC(c3ccccc3F)C2)c(O)c1-c1c(OC)cccc1OC (stereo not shown) [Example 127, 5-(2,6-dimethoxyphenyl)-6-(ethoxymethyl)-3-[3-(2-fluorophenyl)pyrrolidine-1-carbonyl]pyridine-2,4-diol]
– | 10 to 100 nM | COc1cccc(-c2c(-c3csc(C)n3)nc(O)c(C(=O)N3CCC(c4ncc(F)cc4F)C3)c2O)c1 (stereo not shown) [Example 128, 3-[3-(3,5-difluoropyridin-2-yl)pyrrolidine-1-carbonyl]-5-(3-methoxyphenyl)-6-(2-methyl-1,3-thiazol-4-yl)pyridine-2,4-diol]
